Entries after “also recorded” stand apart in the source; their conditions may differ. Ends that are not written are not given here.
What was measured:
[1] = test system: UMR-106 rat osteosarcoma cells; test: Intracellular free calcium concentration (FURA-2) with KCl stimulation; type: cell-based; conditions: cultured UMR osteoblast cells, in the presence of KCl
Description: Because osteoporosis is a progressive syndrome, a model is required and the use of cultured osteoblasts of the UMR-106.rat osteosarcoma cells, ATCC CRL 1661 have been used as the model. Uptake of calcium in these cells has been monitored using the FURA-2 method, wherein a fluorescent dye which is specific for calcium is used as a marker for calcium change into the cells. Cells are incubated with 1-10 μM of the acetomethoxy ester of FURA-2 for 30-60 minutes. Upon uptake, the ester is hydrolyzed to release free FURA-2, which selectively binds free Ca^2+. FURA-2 has a characteristic fluorescence spectrum, which wavelength is shifted when the dye binds to free Ca^2+. According to the method, Ca^2+ which is present in the cell can be quantified by exciting the dye at two different wavelengths, 340 and 380 nm. The emission fluorescence is measured at 510 nm. […] It is conventional to report the concentration of calcium within the cell in terms of the fluorescence ratio, the 340/380 ratio. […]
Intracellular free calcium concentration was measured using the fluorescent dye FURA-2 according to the method of Grynkiewicz et al., J. Biol. Chem., 260, 3440 (1985) and Pang et al., P. N. A. S. (USA), 87, 623 (1990). […] Quantitation is obtained by exciting the dye at two different wavelengths, preferably 340 and 380 nm and measuring the fluorescent emission at 510 nm. […]

Sprague-Dawley rats = test: In vivo blood pressure measurement in anaesthetized rats
Description: Sprague-Dawley (S-D) rats were anaesthetized with pentobarbital and a cannula was inserted into the carotid artery. The rats were kept sedated during the procedure and were injected with PTH peptides only when the blood pressure of the rats were stable. Peptides were injected through a cannula in the jugular vein, in amounts of 1, 3 and 5 or more μg/kg and the mean systolic and diastolic blood pressure was monitored continuously throughout the procedure. Results are reported with comparison to bPTH-(1-34).

[2] = test system: right atrial tissue of Sprague-Dawley rats; test: In vitro atrial contractility and contraction rate measurement; conditions: Sprague-Dawley rat right atrium; for effect on contraction rate of right atrial tissue: FIGS. 24-25
Excerpt: We have also developed a method of modeling the chronotropic effects of natural and synthetic chemicals using the right atrium from Sprague-Dawleyrats and measuring the change in the force and rate of atrium contraction. This method and the effects of bovine PTH (1-34) in this system are described in Tenner et al, The Canadian Journal of Physiology and Pharmacology, Volume 61, No. 10 (1983) pp. 1162-1167. […] FIGS. 24-25 illustrate the effect of the PTH analogues of this invention as measured using this in vitro technique.
The assay was performed according to Tenner et al., Canadian Journal of Physiology and Pharmacology, Vol. 61, No. 10 (1983) pp. 1162-1167. Sprague-Dawley rats weighing between 100 and 250 g were treated with heparin (500 IU, i.p.) 15 minutes prior to decapitation. Thoracotomies were performed and the heart rapidly excised and placed in a cold physiological salt solution (PSS) having the following composition (in millimolar): NaCl, 120; KCl, 5.63; CaCl2, 2.0; MgCl2, 2.1; NAHCO3, 25.0; dextrose, 9.7. The solution was continuously aerated by a gas mixture of 95% O2 -5% CO2. The right atrium was isolated and suspended in a tissue chamber containing 20 mL of PSS at 37° C., pH 7.4. Atria were allowed to equilibrate for 1 hr under a resting tension of 1 g.
The atrial rate and force were determined from contractions recorded by a Grass FT.03 force-displacement transducer and a Grass model 79 polygraph. The Basial atrial rate f or control atria (as determined by counting the frequency of contractions) was 258±7 bpm (n=29). Basal developed force of the spontaneously beating right atria was 0.33±0.06 g (n=10) . Dose-response curves for the peptides were obtained by cumulative addition of the respective peptides. Drug dose is calculated on the basis of the final concentration in the bath solution.

[3] = test system: rat tail artery helical strip; test: In vitro rat tail artery helical strip tension assay; conditions: precontracted with AVP, FIG. 20
Excerpt: We have developed a method for modeling the hypotensive effects of natural and synthetic chemical compounds using helically cut tail arteries from Sprague-Dawley rats in a Sawyer-Bartlestone chamber, measuring the change in tension with a force displacement transducer. This method and the effect of bovine PTH-(1-34) in this system is described in Blood Vessels, 22, 57 (1985). […] FIGS. 12, 16 and 20 illustrate the effect of the PTH analogues of this invention as measured using this in vitro technique. Alternatively, the strips may be precontracted using other pressor substances such as norepinephrine (NE) or KCl.
The assay was performed according to Pang et al., Blood Vessels, 22, 57 (1985). Sprague-Dawley rats were anaesthetized with pentobarbital and the tail artery excised and placed in ice-cold Krebs-Hanseleit solution (KHS) oxygenated with 95% O2, 5% CO2. […] The force generated by the strips was measured with a Grass FT03 force displacement transducer and recorded on a polygraph. […]
One to two minutes prior to addition of a peptide, the strips were contracted by addition of either arginine vasopressin (AVP), potassium chloride (KCl) or norepinephrine (NE) to the bath. The peptide was then added to the bath and the degree of relaxation measured. […] Drug dose is calculated on the basis of the final concentration in the bath solution.

Molecule	effect on KCl-induced intracellular [Ca2+]i increase [1]	condition of rats due to blood pressure (Sprague-Dawley rats; 5 μg/kg, Sprague-Dawley rats)	effect on contractility of right atrial tissue ([2]; FIG. 24)	effect on contraction rate of right atrial tissue [2]	relaxation of rat tail artery helical strips [3]	effect on mean arterial blood pressure (Sprague-Dawley rats; anesthetized Sprague-Dawley rats, FIGS. 15, 19)
PTH: parathyroid hormone (native PTH); in FIGS. 14 a-d it is bPTH-(1-34) [reference compound]	inhibits intracellar [Ca^2+ ]i increases	essentially moribund	–	–	–	–
SVSEIQLMHNLGKHLNSMERVEWLAAALQDVHNF [Cs221]	comparable to the inhibition of intracellular [Ca^2+ ]i increases by hPTH; also recorded: lower intracellular calcium increments	–	minimal effect	minimal effect	least relaxation	least decrease in blood pressure
Cs2001: human PTH 1-84, no substitution (SEQ ID NO:2) (peptide) SVSEIQLMHNLGKHLNSMERVEWLRKKLQDVHNFVALGASIAYRDGSSQRPRKKEDNVLVESHQKSLGEADKADVDVLIKAKPQ	–	–	–	increase the contraction rate	–	–

From patent US5317010A, “Parathyroid hormone analogues substituted at AA 25, 26, 27, and use in osteoporosis treatment” (Pang; Peter K. T., priority 1991, dated 1994)
